Measurements from PMC3411647 (PLoS ONE, 2012).

Legend:
[1] = molecular target: T1, human histamine H3 receptor (Homo sapiens, UniProt Q9Y5N1); experiment: Competitive/saturation binding with [3H]N-α-methylhistamine, H3R/HEK-293 cell membranes
T1 construct: expressed in transfected cells
Method: (§1) Figure 4 Competition binding experiments with [^3H]-N-α-methylhistamine. […] The presented data are the means ±SE of values from a single experiment performed in duplicate and are representative of three to six separate experiments.
(§2) HEK-293 cells stably expressing H3R were harvested and resuspended in ice-cold 50 mM Tris-HCl (pH 7.4) containing a complete protease inhibitor cocktail tablet and mixed by inverting. The cell pellet was homogenized with a Polytron PT 1200 set at 4000 rpm and centrifuged at 1,000 g for 5 min. The supernatant was then centrifuged twice at 50,000 g for 30 min at 4°C. Finally, the resulting pellet was gently suspended in 50 mM Tris-HCl (pH 7.4) buffer and the membrane concentration was determined using Bio-Rad protein assays.
(§3) The membranes (50 µg of protein) were incubated with [^3H] N-α-methylhistamine at various concentrations (from 0.03 nM to 50 nM) for saturation binding assays. For competitive binding assays, the membranes (50 µg of protein) were incubated with 10 nM [^3H] N-α-methylhistamine for recombinant hH3R or 2nM [^3H] N-α-methylhistamine for rat brain H3R in the presence of various compound concentrations in the buffer (50 mM Tris–HCl, pH 7.4). […] Following three washes, the membrane-bound radioactivity was measured on a Topcount (PerkinElmer) at 20°C. […] IC50 values were converted to Ki values using the Cheng-Prusoff equation. Each experiment was performed in duplicate and repeated three to six times. All data were analyzed by nonline arregression using GraphPad Prism version 4.0 software.

H3R [2] = molecular target: T2, H3R (Homo sapiens, UniProt Q9Y5N1); experiment: H3R internalization, cell-surface ELISA in HEK-293 cells stably transfected with Flag-H3R; assay type: cell-based; conditions: 100 µM, 45 min at 37°C
T2 construct: expressed in transfected cells
Method: ELISA data are expressed as the percentage of receptors detected on the surface of agonist-untreated cells expressing H3R. Error bars represent the SEM for four replicates.
The cell surface expression of H3R was quantitatively assessed by ELISA and performed as described previously. Briefly, HEK-293 cells stably transfected with the pCMV-H3R construct were seeded in 48-well dishes coated with poly-L-lysine. […] Medium was aspirated and the cells were washed once with Tris-buffered saline (TBS). […] Cells were then incubated for 1 h with an alkaline phosphatase-conjugated monoclonal antibody directed against the Flag epitope and diluted 1∶1,000. Cells were washed 3 times, and antibody binding was visualized by adding 0.25 mL of an alkaline phosphatase substrate (Bio-Rad). Development was stopped by adding 0.1 mL of the substrate to a 96-well microtiter plate containing 0.1 mL of 0.4 M NaOH.

rat brain H3R = molecular target: T3, rat brain H3R (Rattus norvegicus, UniProt Q9QYN8); experiment: Competitive/saturation binding with [3H]N-α-methylhistamine, rat cerebral cortex membranes; conditions: saturation binding, rat cerebral cortex
T3 construct: from tissue; host or cells: rat cerebral cortex membranes
Method: as §1, §3

hH3R = molecular target: T4, hH3R (Homo sapiens, UniProt Q9Y5N1); experiment: Saturation radioligand binding (Scatchard) of [3H]N-α-methylhistamine (0.03-50 nM) to membranes of HEK-293 cells expressing hH3R, 50 mM Tris-HCl pH 7.4, room temperature.
T4 construct: gene HRH3; recombinant, cDNA from human thalamus RNA (AF140538), stably expressed in HEK-293 cells; vectors pCMV-Flag and pEGFP-N1
Method: as §2
The membranes (50 µg of protein) were incubated with [^3H] N-α-methylhistamine at various concentrations (from 0.03 nM to 50 nM) for saturation binding assays. For competitive binding assays, the membranes (50 µg of protein) were incubated with 10 nM [^3H] N-α-methylhistamine for recombinant hH3R or 2nM [^3H] N-α-methylhistamine for rat brain H3R in the presence of various compound concentrations in the buffer (50 mM Tris–HCl, pH 7.4). The reaction mixtures were incubated for 90–120 min at room temperature to achieve binding equilibrium. Following three washes, the membrane-bound radioactivity was measured on a Topcount (PerkinElmer) at 20°C. […] IC50 values were converted to Ki values using the Cheng-Prusoff equation. […] All data were analyzed by nonline arregression using GraphPad Prism version 4.0 software.

mouse H3R = molecular target: T5, mouse H3R (Mus musculus, UniProt P58406); experiment: ERK1/2 phosphorylation in neonatal mouse cortical neuron cultures; assay type: cell-based
T5 construct: endogenous in cells; host or cells: primary cortical neurons of neonatal ICR mice
Method: Figure 8 Phosphorylation of ERK1/2 induced by ZEL-H16 in mouse cortical neurons. A, Time-dependent phosphorylation of ERK1/2 induced by 5 µM ZEL-H16 in neonatal mouse cortical neuron cultures. B, The phosphorylation of ERK1/2 induced by 50 µM ZEL-H16 for 20 min was mostly abolished by 100 ng/mL PTX or 10 µM thioperamide. Signals were quantified by densitometric image analysis and p-ERK was normalized to a loading control (ERK). The signal at each point is expressed as the percentage of the maximal p-ERK signal induced by ZEL-H16. Data represent the mean ±SE of three independent experiments.
Neuronal cortical cultures were prepared from neonatal ICR mice. Cerebral cortices were dissociated in sterile Dulbecco’s phosphate-buffered saline (D-PBS; Sigma-Aldrich, St. Louis, MO), and the neurons were isolated in the same medium containing 0.5% trypsin at 37°C for 10 min. After centrifugation, dissociated neurons were re-suspended in neurobasal medium (NBM; Gibco, Carlsbad, CA) supplemented with 2% B-27 and 0.5 mmol/L-glutamine (Gibco, Carlsbad, CA) and then plated on 48-well plates at a density of approximately 1.3×10^6 per well. After 7 days of culture, the neurons were serum starved for approximately 3 h prior to drug treatment. […]

H3R [3] = molecular target: T2, H3R; experiment: ERK1/2 phosphorylation (Western blot) in HEK-293 cells stably expressing H3R; assay type: cell-based
Method: Figure 7 Phosphorylation of ERK1/2 induced by ZEL-H16 in H3R-expressing HEK-293 cells. […] Signals were quantified by densitometric image analysis and p-ERK was normalized to a loading control (ERK). […] Concentration -dependent phosphorylation signals were quantified by densitometric analysis and p-ERK levels were normalized to total ERK levels. […] C, The phosphorylation of ERK1/2 induced by ZEL-H16 could be entirely abolished by co-incubation with H3R antagonist thioperamide (***p<0.001). Data represent the mean ±SE of three independent experiments.
HEK-293 cells stably expressing human H3R were grown in a 6-well plate and were serum starved 2 h in serum-free culture medium prior to stimulation. Cells were stimulated with the indicated H3R ligands at the designated concentrations. Incubations were stopped at the indicated times by removing the stimulation medium by aspiration. The cells were washed in ice-cold PBS and subsequently lysed in 100 µl of lysis buffer [20 mM HEPES (pH 7.5), 10 mM EDTA, 150 mM NaCl, 1% Triton X-100, and one tablet of complete protease inhibitor (Roche, Indianapolis, IN) per 50 mL] at 4°C on a rocker for 30 min. The lysates were centrifuged and separated by sodium dodecyl sulfate-polyacrylamide (12%) gel electrophoresis (SDS-PAGE) and blotted onto polyvinylidene difluoride membranes. Membranes were blocked for 1 h at room temperature in TBST (10 mmol/L Tris, 150 mmol/L NaCl, 0.1% Tween-20, pH 8.0) buffer containing 5% (v/w) skim milk. Membranes were probed overnight with primary antibodies against p-ERK1/2 (1∶1,000; Cell Signaling, Danvers, MA) in TBST containing 5% (v/w) BSA, and then probed with horseradish peroxidase-labeled secondary antibody (1∶5,000) for 1 h at room temperature in TBST containing 5% (v/w) milk powder. Immunoreactivity was detected by ECL assays. The blots were stripped and reprobed using antibodies against total ERK1/2 (1∶2,000) (Cell Signaling, Danvers, MA) as a control.

H3R-EGFP = molecular target: T6, H3R-EGFP (Homo sapiens, UniProt Q9Y5N1); experiment: Recycling of internalized H3R-EGFP to the cell surface, confocal microscopy; assay type: cell-based; conditions: 20 µM ZEL-H16 or 500 µM histamine for 30 min, cycloheximide 100 µg/ml
T6 construct: expressed in transfected cells
Method: Figure 6 Localization of internalized H3R-EGFP stably expressed in HEK-293 cells and recycling of internalized H3R to the cell surface. […] All pictures shown are representative of at least three independent experiments.
HEK-293 cells stably expressing H3R-EGFP were seeded in covered glass-bottom 6-well plates. […] After fixing the cells with 4% paraformaldehyde for 10 min, cells were mounted in mounting reagent (DTT/PBS/glycerol). Confocal images were taken on a Zeiss LSM 510 microscope with an attached Axiovert 200 microscope and LSM5 computer system. Images were collected using QED camera software and processed with Adobe Photoshop.

H3R [4] = molecular target: T7, H3R (Cavia porcellus, UniProt Q9JI35); experiment: Guinea-pig ileum bioassay, inhibition of electrically induced twitch
T7 construct: from tissue; host or cells: guinea-pig ileum segments
Method: Each point is the mean ± s.e.m. of three to six separate experiments.
The procedure used was as described previously. Adult male guinea pigs (300–500 g) were killed by cervical dislocation. The ileum was removed at a point 20 cm from the caecum and flushed with and placed in modified K–H buffer of following composition: 118 mM NaCl, 5.9 mM KCl, 1.2 mM CaCl2, 1.2 mM MgSO4, 1 mM Na2HPO4, 25 mM NaHCO3 and 10 mM D-glucose. Ileum segments (2.5–3 cm) were suspended in 20 ml organ baths containing K–H buffer maintained at 37°C and gassed with 95% O2/5% CO2. Contractile activity under stimulation (rectangular pulses of 15 V, 0.5 ms, and 0.1 Hz) was recorded using isometric transducers (Grass FTO3). […] Mepyramine ([…]) and famotidine ([…]) (Sigma-Aldrich, St. Louis, MO) were added to the K–H buffer to block postsynaptic H1 and presynaptic H2 receptors, respectively.

histamine H4 receptor = conditions: cited from earlier work

T2 sequence (Q9Y5N1 whole entry): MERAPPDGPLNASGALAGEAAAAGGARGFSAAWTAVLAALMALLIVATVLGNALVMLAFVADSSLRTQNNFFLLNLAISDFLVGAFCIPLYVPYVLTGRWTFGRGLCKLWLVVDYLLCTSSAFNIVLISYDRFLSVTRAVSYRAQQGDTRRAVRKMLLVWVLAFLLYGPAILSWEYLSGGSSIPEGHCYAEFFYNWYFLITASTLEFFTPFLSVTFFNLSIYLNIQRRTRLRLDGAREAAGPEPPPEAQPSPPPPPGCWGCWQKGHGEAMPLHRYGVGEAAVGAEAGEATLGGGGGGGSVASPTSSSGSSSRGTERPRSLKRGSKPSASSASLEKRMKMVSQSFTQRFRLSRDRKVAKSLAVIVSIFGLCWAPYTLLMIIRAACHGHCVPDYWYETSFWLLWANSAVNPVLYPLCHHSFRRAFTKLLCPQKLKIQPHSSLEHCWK
T7 sequence (Q9JI35 whole entry): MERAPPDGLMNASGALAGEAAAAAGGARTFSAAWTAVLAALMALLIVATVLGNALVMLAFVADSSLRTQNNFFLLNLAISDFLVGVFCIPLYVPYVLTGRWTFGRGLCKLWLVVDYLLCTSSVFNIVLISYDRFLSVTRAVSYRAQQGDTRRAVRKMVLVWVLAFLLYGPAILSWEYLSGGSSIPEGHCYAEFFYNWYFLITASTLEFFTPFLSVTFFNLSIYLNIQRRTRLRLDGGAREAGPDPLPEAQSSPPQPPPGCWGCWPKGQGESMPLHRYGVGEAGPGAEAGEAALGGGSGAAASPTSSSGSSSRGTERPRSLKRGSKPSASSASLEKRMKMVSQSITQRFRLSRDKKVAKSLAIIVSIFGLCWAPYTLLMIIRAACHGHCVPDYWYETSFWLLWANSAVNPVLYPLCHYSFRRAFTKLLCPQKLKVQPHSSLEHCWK
T3 sequence (Q9QYN8 whole entry): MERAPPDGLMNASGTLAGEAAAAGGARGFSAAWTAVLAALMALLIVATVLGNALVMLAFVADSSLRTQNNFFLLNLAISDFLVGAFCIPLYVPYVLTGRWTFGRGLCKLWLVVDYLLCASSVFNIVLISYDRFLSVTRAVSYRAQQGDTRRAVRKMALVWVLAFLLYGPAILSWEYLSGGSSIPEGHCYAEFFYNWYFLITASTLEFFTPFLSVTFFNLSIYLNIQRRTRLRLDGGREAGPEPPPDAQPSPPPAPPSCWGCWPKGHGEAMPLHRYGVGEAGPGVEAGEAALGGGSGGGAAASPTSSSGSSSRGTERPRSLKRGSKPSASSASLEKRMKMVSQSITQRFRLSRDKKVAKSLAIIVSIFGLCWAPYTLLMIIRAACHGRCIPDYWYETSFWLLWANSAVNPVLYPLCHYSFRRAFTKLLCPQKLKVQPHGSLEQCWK
T1 sequence (Q9Y5N1 whole entry): as the sequence (Q9Y5N1 whole entry) above
T6 sequence (Q9Y5N1 whole entry): as above
T4 sequence (Q9Y5N1 whole entry): as above
T5 sequence (P58406 whole entry): as the sequence (Q9QYN8 whole entry) above, with T15A, A286T, A290G, R387H, I389V counted along it

N=C(N)SCCc1c[nH]cn1 [imetit, S-[2-(4-imidazolyl)ethyl]isothiourea, reference compound]
Ki [1]: 0.9 ± 0.06 nM | loss in the expression of the receptors on the cell surface (internalization) (H3R [2]): 18–20%

CNCCc1cnc[nH]1 [[^3H]N-α-methylhistamine, reference compound]
Kd (rat brain H3R): 0.83 nM

CNCCc1c[nH]cn1 [[^3H]N-α-methylhistamine, [3H]N-alpha-methylhistamine]
Kd (hH3R): 0.71 nM

S=C(NC1CCCCC1)N1CCC(c2cnc[nH]2)CC1 [thioperamide]
effect on ERK phosphorylation induced by 50 µM ZEL-H16 at 20 min (mouse H3R): abolish most of the stimulatory effects | effect on ERK1/2 phosphorylation induced by 50 µM ZEL-H16 (H3R [3]): completely abolished

NCCc1c[nH]cn1 [histamine, reference compound]
loss in the expression of the receptors on the cell surface (internalization) (H3R [2]): 18–20% | time for internalized H3R to recycle to the cell surface after agonist removal (H3R-EGFP): ≤ 1 h | efficacy of inhibition of the contractions of the guinea pig ileum (H3R [4]; electrically induced twitch, mepyramine and famotidine present): 54.52±0.99% | EC50 (H3R [4]; inhibition of electrically induced twitch, read-out: pD 2 (converted)): 95.5 nM

c1nc(CC2CCNCC2)c[nH]1 [immepip, 4-(1H-imidazol-4-ylmethyl)piperidine]
pKi (histamine H4 receptor): 7.66
